# Reference: patent US9309247B2, “2-substituted imidazo[4,5-D]phenanthroline derivatives and their use in the treatment of cancer” (Aptose Biosciences Inc., priority 2013, dated 2016)
# Where two headings read alike, the source gives them in different places.
# Tests used:
# [1] = NCI screen; cited from earlier work
# [2] = tested on: human renal cancer cells ACHN; experiment: XTT cell proliferation assay, ACHN; type: cell-based; details: 5 days incubation, read-out: Antiproliferative activity, Kidney ACHN
# Experimental: (§1) Exemplary compounds 1-8 were tested for anti-cancer activity in vitro using human renal cancer cells (ACHN and CAK-1), human pancreatic cells (BXPC3 and SU-86-86), human prostate cancer cell (DU14), human colon carcinoma cells (HT-29 and KM-12), leukemia cells (HL60), brain cancer/tumour cells (SK-A-AS, U87-MG), and human non-small cell lung cancer cells (H460). Compounds 1-8 are the specific embodiments of Formula (I) and Formula (IV) as described above in this application.
# (§2) The cells were maintained as a monolayer in a growth medium; McCoy's 5A modified medium (Sigma, St. Louis, Mo.), supplemented with 2 mM L-glutamine (Gibco, Grand Island, N.Y.), 10% fetal bovine serum (FBS) (Multicell, WISENT Inc. St-Bruno, QC), antibiotic-antimycotic (Multicell), at 37° C. in a 5% CO2-humidified incubator. Cells were transferred onto 150 mm tissue culture plates and grown until sub-confluency (70-80%) prior to their use. The in vitro antiproliferative activity of compounds was evaluated by incubating the cells with varying concentrations of exemplary compounds as shown in Table 1 for 5 days. The efficacy of these compounds in this cell proliferation assay was measured based in the ability of live cells to reduce the tetrazolium salt XTT to orange colored compounds of formazan (XTT cell proliferation kit IT, Roche Applied Science, Montreal, QC).
# [3] = tested on: human renal cancer cells CAKI-1; experiment: XTT cell proliferation assay, CAKI-1; type: cell-based; details: 5 days incubation, read-out: Antiproliferative activity, Kidney CAKI-1
# Experimental: as §1, §2
# [4] = tested on: human pancreatic cells BXPC3; experiment: XTT cell proliferation assay, BXPC3; type: cell-based; details: 5 days incubation, read-out: Antiproliferative activity, Pancreas BXPC3
# Experimental: as §1, §2
# [5] = tested on: human pancreatic cells SU-86-86; experiment: XTT cell proliferation assay, SU-86-86; type: cell-based; details: 5 days incubation, read-out: Antiproliferative activity, Pancreas SU-86-86
# Experimental: as §1, §2
# [6] = tested on: human prostate cancer cell DU14; experiment: XTT cell proliferation assay, DU14; type: cell-based; details: 5 days incubation, read-out: Antiproliferative activity, Pros. DU14
# Experimental: as §1, §2
# [7] = tested on: human colon carcinoma cells KM12; experiment: XTT cell proliferation assay, KM12; type: cell-based; details: 5 days incubation, read-out: Antiproliferative activity, Colon KM12
# Experimental: as §1, §2
# [8] = tested on: human colon carcinoma cells HT-29; experiment: XTT cell proliferation assay, HT-29; type: cell-based; details: 5 days incubation, read-out: Antiproliferative activity, Colon HT-29
# Experimental: as §1, §2
# leukemia cells HL60 = experiment: XTT cell proliferation assay, HL60; type: cell-based, human; details: 5 days incubation, read-out: Antiproliferative activity, Leuk. HL60
# Experimental: as §1, §2
# [9] = tested on: brain cancer/tumour cells SK-N-AS; experiment: XTT cell proliferation assay, SK-N-AS; type: cell-based, human; details: 5 days incubation, read-out: Antiproliferative activity, Brain SK-N-AS
# Experimental: as §1, §2
# [10] = tested on: brain cancer/tumour cells U87-MG; experiment: XTT cell proliferation assay, U87-MG; type: cell-based, human; details: 5 days incubation, read-out: Antiproliferative activity, Brain U87-MG
# Experimental: as §1, §2
# [11] = tested on: non-small cell lung cancer cells H226; experiment: XTT cell proliferation assay, H226; type: cell-based, human; details: 5 days incubation, read-out: Antiproliferative activity, NSCLC H226
# Experimental: [The procedure below names another cell line; the source lists this cell line under the same test.] as §1, §2
# [12] = tested on: non-small cell lung cancer cells HOP-92; experiment: XTT cell proliferation assay, HOP-92; type: cell-based, human; details: 5 days incubation, read-out: Antiproliferative activity, NSCLC HOP-92
# Experimental: [The procedure below names another cell line; the source lists this cell line under the same test.] as §1, §2
# [13] = tested on: non-small cell lung cancer cells HOP-62; experiment: XTT cell proliferation assay, HOP-62; type: cell-based, human; details: 5 days incubation, read-out: Antiproliferative activity, NSCLC HOP-62
# Experimental: [The procedure below names another cell line; the source lists this cell line under the same test.] as §1, §2
# [14] = tested on: human non-small cell lung cancer cells H460; experiment: XTT cell proliferation assay, H460; type: cell-based; details: 5 days incubation, read-out: Antiproliferative activity, NSCLC H460
# Experimental: as §1, §2
# [15] = tested on: non-small cell lung cancer cells EKVX; experiment: XTT cell proliferation assay, EKVX; type: cell-based, human; details: 5 days incubation, read-out: Antiproliferative activity, NSCLC EKVX
# Experimental: [The procedure below names another cell line; the source lists this cell line under the same test.] as §1, §2
# [16] = tested on: Human Burkitt's lymphoma Raji cells; experiment: Cell growth inhibition assay, Raji; type: cell-based; details: five days of incubation, XTT; read-out: IC50 Raji (hs)
# Experimental: (§3) In this study, compounds 1-8 were screened in vitro against a panel of four mouse lymphoma cell lines and two human lymphoma cell line for cell growth inhibition activity. Following treatment, half maximal inhibitory concentrations (IC50) were determined with the objective of selecting the most efficacious compounds for evaluation of in vitro absorption, distribution, metabolism, and excretion (ADME) screening.
# Human Burkitt's lymphoma Raji cells (ATCC CCL-86) were grown in suspension in Roswell Park Memorial Institute (RPMI) 1640 medium supplemented with 10% fetal bovine serum (FBS), 10 mM HEPES KOH pH 7.4, and 2 mM sodium pyruvate at 37° C. in an atmosphere of 5% CO2 in air. Logarithmically growing cells were routinely sub-cultured twice weekly. Briefly, cells were collected by centrifugation, resuspended in pre-warmed media, and diluted 1:10 into a 75 cm^2 flask.
# (§4) Cells were subcultured and 4×10^3 cells (in 50 μL) were transferred to each well in a Falcon 96-well tissue culture plate. Exemplary compounds were dissolved in pure dimethyl sulphoxide (DMSO) at a concentration of 10 mM. From this 10 mM stock solution, 12 successive serial dilutions were made in DMSO (2.5 fold dilutions), ranging from 0.52 μM to 10 mM. Using these stock dilutions, 5 μL of each were added to 500 μL of media, and 50 μL of this was added to the cells. The final concentrations being tested ranged from 0.0026 μM to 50 μM. Each concentration was tested in triplicate, and DMSO and untreated cells were also included as controls. After five days of incubation with the compounds, cell viability was determined using the XTT cell proliferation kit (Roche, Cat. No. 11 465 015 001). Following the XTT protocol, 4.5-24 hours after addition of the reagent, the plates were read in a μQuant 96-well plate spectrophotometer (Biotek Instruments Inc.) and the results analyzed to determine the IC50.
# [17] = tested on: human Burkitt's lymphoma Ramos cells; experiment: Cell growth inhibition assay, Ramos; type: cell-based; details: five days of incubation, XTT; read-out: IC50 Ramos (hs)
# Experimental: as §3
# (§5) Similarly, human Burkitt's lymphoma Ramos cells (ATCC CRL-1596) were grown in suspension in Roswell Park Memorial Institute (RPMI) 1640 medium supplemented with 10% fetal bovine serum (FBS), 10 mM HEPES KOH pH 7.4, and 2 mM sodium pyruvate. Mouse P388D1 (ATCC CCL-46) and WR19L (ATCC TIB-52) cells were grown in suspension in Dulbecco's Modified Eagle Medium (DMEM) with 10% fetal bovine serum (FBS), 10 mM HEPES, and 2 mM sodium pyruvate. Mouse WEHI231 (ATCC CRL-1702) and EL4 (ATCC TIB-39) cells were grown in suspension in DMEM with 10% fetal bovine serum (FBS), 10 mM HEPES KOH pH 7.4, 2 mM sodium pyruvate, and 0.05 mM β-mercaptoethanol. All cells were maintained at 37° C. in an atmosphere of 5% CO2 in air. Logarithmically growing cells were routinely sub-cultured twice weekly. Briefly, cells were collected by centrifugation, resuspended in pre-warmed media, and diluted 1:10 into a 75 cm^2 flask.
# as §4
# EL4 (mouse, lymphoma) = experiment: Cell growth inhibition assay, EL4; type: cell-based; details: five days of incubation, XTT; read-out: IC50 EL4 (ms)
# Experimental: as §3, §5, §4
# P388D1 (mouse, lymphoma) = experiment: Cell growth inhibition assay, P388D1; type: cell-based; details: five days of incubation, XTT; read-out: IC50 P388D1 (ms)
# Experimental: as §3, §5, §4
# [18] = tested on: WEHI 231 (mouse, B-cell lymphoma); experiment: Cell growth inhibition assay, WEHI231; type: cell-based; details: five days of incubation, XTT; read-out: IC50 WEHI231 (ms)
# Experimental: as §3, §5, §4
# WR19L (mouse, lymphoma) = experiment: Cell growth inhibition assay, WR19L; type: cell-based; details: five days of incubation, XTT; read-out: IC50 WR19L (ms)
# Experimental: as §3, §5, §4
# [19] = tested on: panel of human and mouse lymphoma cell lines; experiment: Cell growth inhibition, whole lymphoma panel (mean IC50, mean rank); type: cell-based; details: mean over six lymphoma cell lines
# Experimental: as §3, §4
# In vitro potency was assessed using eight exemplary compounds against a panel of human and mouse lymphoma cell lines (Table 4). […] To compare the efficacy of the compounds in cell growth inhibition across the entire panel of cell lines screened, the eight compounds were ranked according to efficacy against each cell line with a numerical value of one indicating most efficacious (lowest IC50 value) and eight being the least efficacious (highest IC50 value).
Compound,IC50 [2] [nM],IC50 [4] [nM],IC50 [6] [nM],IC50 [7] [nM],IC50 [8] [nM],IC50 (leukemia cells HL60) [nM],IC50 [9] [nM],IC50 [10] [nM],IC50 [11] [nM],IC50 [12] [nM],IC50 [13] [nM],IC50 [14] [nM],IC50 [16] [nM],IC50 [17] [nM],"IC50 (EL4 (mouse, lymphoma)) [nM]","IC50 (P388D1 (mouse, lymphoma)) [nM]",IC50 [18] [nM],"IC50 (WR19L (mouse, lymphoma)) [nM]",IC50 [19] [nM],IC50 [5] [nM],also measured
c1ccc2c(-c3nc4ccccc4[nH]3)cccc2c1 [NCI #144033],–,–,–,–,–,–,–,–,–,–,–,–,–,–,–,–,–,–,–,–,activity in the In Vivo Anticancer Drug Screen [1]: None of these three compounds showed any activity
FC1(F)Oc2ccc(-c3nc4c5cccnc5c5ncccc5c4[nH]3)cc2O1 [Compound 4],127,170,150,180,300,170,190,180,390,170,170,160,54,58,486,243,6.4,5.8,142,26,"IC50 [3]: 170 nM; IC50 ([15]; Homo sapiens, EKVX, 120 h): 160 nM"
FC1(F)Oc2ccc(-c3nc4c5cccnc5c5ncccc5c4[nH]3)cc2O1 [Compound 2],170,180,220,220,300,380,–,180,430,170,–,–,166,150,384,400,5.1,31,189,–,–
FC1(F)Oc2ccc(-c3nc4c5cccnc5c5ncccc5c4[nH]3)cc2O1 [Compound 6],38,200,130,180,170,50,36,180,210,30,30,160,32,18,57,52,4.2,< 2.6,28,26,IC50 [3]: 30 nM; IC50 [15]: 170 nM
CN(C)c1ccc(-c2nc3c4ccccc4c4ccccc4c3[nH]2)cc1 [NCI #322334],–,–,–,–,–,–,–,–,–,–,–,–,–,–,–,–,–,–,–,–,activity in the In Vivo Anticancer Drug Screen [1]: None of these three compounds showed any activity

# Now from value to compound, other results behind:
IC50 [2] [nM],IC50 [4] [nM],IC50 [6] [nM],IC50 [7] [nM],IC50 [8] [nM],IC50 (leukemia cells HL60) [nM],IC50 [9] [nM],IC50 [10] [nM],IC50 [11] [nM],IC50 [12] [nM],IC50 [13] [nM],IC50 [14] [nM],IC50 [16] [nM],IC50 [17] [nM],"IC50 (EL4 (mouse, lymphoma)) [nM]","IC50 (P388D1 (mouse, lymphoma)) [nM]",IC50 [18] [nM],"IC50 (WR19L (mouse, lymphoma)) [nM]",IC50 [19] [nM],Compound,IC50 [5] [nM],also measured
23,40,30,400,390,30,190,40,200,170,150,320,112,83,470,209,7.6,12,149,FC1(F)Oc2ccc(-c3nc4c5cccnc5c5ncccc5c4[nH]3)cc2O1 [Compound 7],110,IC50 [3]: 160 nM; IC50 [15]: 220 nM
170,180,170,230,220,150,–,154,390,170,–,–,197,139,451,377,4.2,59,205,FC1(F)Oc2ccc(-c3nc4c5cccnc5c5ncccc5c4[nH]3)cc2O1 [Compound 3],–,–
203,210,150,583,285,110,–,190,710,160,–,–,25,34,199,146,3,5.1,69,FC1(F)Oc2ccc(-c3nc4c5cccnc5c5ncccc5c4[nH]3)cc2O1 [Compound 8],–,–
130,200,180,280,170,110,90,180,190,170,210,140,109,75,518,414,12.6,9.3,190,FC1(F)Oc2ccc(-c3nc4c5cccnc5c5ncccc5c4[nH]3)cc2O1 [Compound 5],28,IC50 [15]: 150 nM
